Test results taken from ChEMBL document CHEMBL3046666, “Design, synthesis, and biological evaluation of benzofuran derivatives as ET receptor antagonists” (Med Chem Res, 2013).
Active and inactive are the calls of the source. The calls are words filed in the database; no cut-off is given here. Square brackets hold non-standard residues; d marks the D form. Peptide text beside a SMILES is read from it.

Columns and labels:
Endothelin-1 receptor [1] = molecular target: T1, Endothelin-1 receptor (Homo sapiens, UniProt P25101); assay: Antagonist activity at ETA receptor (unknown origin)
T1 sequence (P25101 whole entry): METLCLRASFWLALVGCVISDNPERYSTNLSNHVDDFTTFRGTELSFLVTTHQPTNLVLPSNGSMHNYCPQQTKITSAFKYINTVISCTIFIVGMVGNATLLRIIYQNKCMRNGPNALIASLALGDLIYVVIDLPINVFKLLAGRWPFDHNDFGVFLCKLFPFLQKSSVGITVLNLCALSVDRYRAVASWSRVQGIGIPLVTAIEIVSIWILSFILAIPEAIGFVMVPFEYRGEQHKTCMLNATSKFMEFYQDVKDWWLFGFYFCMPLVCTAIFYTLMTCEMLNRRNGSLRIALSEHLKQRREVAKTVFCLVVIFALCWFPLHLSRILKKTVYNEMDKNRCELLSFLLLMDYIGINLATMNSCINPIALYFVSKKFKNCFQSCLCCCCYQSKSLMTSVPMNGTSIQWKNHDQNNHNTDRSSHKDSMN

Rattus norvegicus [2] = assay: Antihypertensive activity in hypoxic pulmonary arterial Sprague-Dawley Rattus norvegicus (rat) model assessed as decrease in hypoxia-induced right ventricular systolic pressure at 10 mg/kg, po administered for 28 days measured on day 29 by hemodynamic analyzer relative to untreated control; assay type: functional, organism-based; design: dose 10 mg/kg; conditions: Heart right ventricle
Rattus norvegicus [3] = assay: Antihypertensive activity in hypoxic pulmonary arterial Sprague-Dawley Rattus norvegicus (rat) model assessed as decrease in hypoxia-induced central vein pressure at 10 mg/kg, po administered for 28 days measured on day 29 by hemodynamic analyzer relative to untreated control; assay type: functional, organism-based; design: dose 10 mg/kg; conditions: Artery
[4] = molecular target: T2, Endothelin-1 receptor (Rattus norvegicus) (UniProt P26684); assay: Antagonist activity at ETA receptor in Sprague-Dawley Rattus norvegicus (rat) thoracic aortic ring assessed as inhibition of ET1-induced thoracic aortic ring contraction at 10 uM after 30 min relative to control
T2 sequence (whole entry): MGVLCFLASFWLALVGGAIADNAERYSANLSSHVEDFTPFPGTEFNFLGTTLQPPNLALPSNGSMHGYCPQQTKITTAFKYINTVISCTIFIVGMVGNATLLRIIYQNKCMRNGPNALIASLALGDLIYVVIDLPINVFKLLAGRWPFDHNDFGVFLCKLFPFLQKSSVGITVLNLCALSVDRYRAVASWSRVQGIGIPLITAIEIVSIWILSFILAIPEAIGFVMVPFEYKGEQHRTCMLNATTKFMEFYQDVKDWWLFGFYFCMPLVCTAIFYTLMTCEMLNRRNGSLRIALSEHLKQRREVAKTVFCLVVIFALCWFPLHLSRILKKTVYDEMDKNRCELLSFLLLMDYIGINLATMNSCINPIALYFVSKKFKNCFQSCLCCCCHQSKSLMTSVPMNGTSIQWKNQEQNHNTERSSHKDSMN

Rattus norvegicus [5] = species on record: Rattus norvegicus; assay: Selectivity Rattus norvegicus (rat)io of IC50 for ETB receptor in Sprague-Dawley Rattus norvegicus (rat) myocardium to IC50 for ETA receptor in Sprague-Dawley Rattus norvegicus (rat) myocardium; assay type: tissue-based
[6] = molecular target: T3, Endothelin receptor type B (Rattus norvegicus, UniProt P21451); assay: Displacement of [125I]ET-1 from ETB receptor in Sprague-Dawley Rattus norvegicus (rat) myocardium after 1 hr
T3 sequence (P21451 whole entry): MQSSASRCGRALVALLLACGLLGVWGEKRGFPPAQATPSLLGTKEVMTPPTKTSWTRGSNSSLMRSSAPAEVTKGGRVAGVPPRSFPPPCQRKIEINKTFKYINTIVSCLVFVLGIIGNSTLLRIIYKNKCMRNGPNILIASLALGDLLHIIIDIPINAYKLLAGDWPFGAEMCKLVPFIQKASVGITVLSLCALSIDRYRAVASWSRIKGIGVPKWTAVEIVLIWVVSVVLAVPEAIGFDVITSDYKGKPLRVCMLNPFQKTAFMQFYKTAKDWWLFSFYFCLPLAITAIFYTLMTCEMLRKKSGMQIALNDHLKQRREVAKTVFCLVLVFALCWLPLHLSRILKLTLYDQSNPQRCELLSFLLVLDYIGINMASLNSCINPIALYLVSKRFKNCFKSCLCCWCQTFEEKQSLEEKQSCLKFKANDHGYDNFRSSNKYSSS

Endothelin-1 receptor [7] = molecular target: T4, Endothelin-1 receptor (Rattus norvegicus, UniProt P26684); assay: Displacement of [125I]ET-1 from ETA receptor in Sprague-Dawley Rattus norvegicus (rat) myocardium after 1 hr
T4 sequence (P26684 whole entry): T2 sequence (whole entry)

Rattus norvegicus [8] = assay: Antihypertensive activity in po dosed hypoxic pulmonary arterial Sprague-Dawley Rattus norvegicus (rat) model assessed as decrease in hypoxia-induced right ventricular systolic pressure administered for 28 days measured on day 29 by hemodynamic analyzer relative to untreated control; assay type: functional, organism-based; conditions: Heart right ventricle
Rattus norvegicus [9] = assay: Antihypertensive activity in po dosed hypoxic pulmonary arterial Sprague-Dawley Rattus norvegicus (rat) model assessed as decrease in hypoxia-induced central vein pressure administered for 28 days measured on day 29 by hemodynamic analyzer relative to untreated control; assay type: functional, organism-based; conditions: Artery
Endothelin-1 receptor [10] = molecular target: T1, Endothelin-1 receptor; assay: Antagonist activity at Homo sapiens (human) ETA receptor

Row | SMILES | inhibition [4] [%] | further results
1 | COc1cccc2oc(C(=O)O)c(C)c12 | – | IC50 (Endothelin-1 receptor [1]): 11 µM
2 | COC(=O)C1=C(C)NC(C)=C(C(=O)OC)C1c1ccccc1[N+](=O)[O-] | – | Activity (Rattus norvegicus [2]): Active; Activity (Rattus norvegicus [3]): Active
3 | CCCOc1cccc2oc(C(=O)O)c(C)c12 | 69.7 | –
4 | Cc1c(C(=O)O)oc2cccc(OCc3ccc4nsnc4c3)c12 | 82.2 | Ratio IC50 (Rattus norvegicus [5]): 40; IC50 [6]: 930 nM; IC50 (Endothelin-1 receptor [7]): 23 nM
5 | Cc1c(C(=O)O)oc2cccc(OCCN3CCCC3)c12 | 34.1 | Activity (Rattus norvegicus [8]): Dose-dependent effect; Activity (Rattus norvegicus [9]): Dose-dependent effect
6 | Cc1c(C(=O)O)oc2cccc(OC/C=C/c3ccccc3)c12 | 50 | –
7 | Cc1c(C(=O)O)oc2cccc(OCc3ccc4nonc4c3)c12 | 70 | Ratio IC50 (Rattus norvegicus [5]): 27; IC50 [6]: 1070 nM; IC50 (Endothelin-1 receptor [7]): 39 nM
8 | CCCCCOc1cccc2oc(C(=O)O)c(C)c12 | 46.8 | –
9 | Cc1c(C(=O)O)oc2cccc(OCc3ccccc3)c12 | 40.7 | IC50 (Endothelin-1 receptor [1]): 3.8 µM
10 | Cc1c(C(=O)O)oc2cccc(OC(C(=O)O)c3ccccc3)c12 (stereo not drawn) | 29 | –
11 | Cc1c(C(=O)O)oc2cccc(OCCOc3cccc(Cl)c3)c12 | 21.7 | –
12 | Cc1c(C(=O)O)oc2cccc(OC(CCC(=O)O)c3ccccc3)c12 (stereo not drawn) | 44 | –
13 | CCCCOc1cccc2oc(C(=O)O)c(C)c12 | 56.7 | –
14 | CC(C)C[C@@H]1NC(=O)[C@@H](C(C)C)NC(=O)[C@@H]2CCCN2C(=O)[C@@H](CC(=O)O)NC(=O)[C@@H](Cc2c[nH]c3ccccc23)NC1=O [BQ-123] (cyclo(L[dW][dD]P[dV])) | 68.1 | IC50 (Endothelin-1 receptor [10]): 37 nM; IC50 (Endothelin-1 receptor [7]): 28 nM
15 | Cc1ccc(OCCOc2cccc3oc(C(=O)O)c(C)c23)cc1 | 40.8 | –
16 | CCOc1cccc2oc(C(=O)O)c(C)c12 | 61 | –
